Measurements published in US4525356A, “N-substituted flavone-8-carboxamides” (Hokuriku Pharmaceutical Co., Ltd., priority 1982, dated 1985).

Legend:
in vitro = in vitro ADME, male Wister rats; details: rat, pH 6; for Ratio of Effect (T 1/2): 50 uM; for half-life at 50 µM: small intestinal mucosa homogenate
Description: (2) Stability in acidic medium (corresponding to artificial small intestinal juice)
After sacrificing male Wister rats (weighing approximately 300 g), small intestine was taken out and small intestinal mucous membrane was scraped off, and 20 ml of 0.1M phosphate buffer (pH 6.00) were added per 0.5 g of small intestinal mucous membrane (wet weight) to give 2.5% of homogenate.
Test compound was dissolved in the homogenate to give definite concentration (50 uM). With shaking of the obtained mixture at 37° C., sampling was carried out from time to time, and the content of each compound was quantitatively measured by analyzing peak height of each compound by a reversed-phase high performance liquid chromatography. The half-life time of each compound in acidic medium (corresponding to artificial small intestinal juice, pH 6.0) was measured from a graph indicating content change of each compound against time.
The compounds of the present invention and flavoxate (Reference 1) should be absorbed, after p.o. administation, in the small intestine to show medical effect. Therefore, the stability of the compounds against the hydrolyzation according to the nonspecific esterase contained in small intestinal mucous membrane is very important.

urinary reflex = test: Supression of urinary reflex (bladder balloon, intraduodenal administration); assay type: in vivo, male Wister rats; details: for ED50: Rattus norvegicus, 50% effective dose, suppression of urinary reflex by more than 50%, up and down method, anesthetized male Wister rats, via duodenum, read-out: ID50 (the source's name); for Ratio of Effect: from ID50, Effect of Reference (Reference 1) defined as 1.00
Description: According to the method of Kaseda et al. (Rinsho Seiri, 5, 540 (1975)), male Wister rats, weighing approximately 300 g and fasted for 15 to 20 hours prior to experiments, were anesthetized by intraperitoneal injection of 500 mg/Kg of urethane and 50 mg/Kg of α-chloralose, and fixed to a supine position. Then the lower abdomen was opened through a midline incision to expose the bladder, and a balloon (1.5 to 2.0 cm^3) was inserted into the urinary bladder via small incision in the base thereof. The change of inner pressure is recorded via pressure transducer. The urinary reflex was induced by elevating the inner pressure to 10 to 20 cm H2 O. Urine was excreted from the incision of the bladder, where balloon was inserted.
The test compounds were given through polyethylene tube inserted into duodenum via an incision in the fundus.
Mean value of contraction according to the urinary reflex appeared during ten minutes before the administration of the compounds, and at 15, 30, 45 and 60 minutes thereafter, have been investigated for the determination of the effect of the present compounds. The mean value suppressed by more than 50% compared to the initial value has been estimated as effect. ID50 (50% effective dose) was obtained by up and down method.

Compound	Ratio of Effect (T 1/2) (in vitro)	half-life at 50 µM (in vitro) [days]	ED50 (urinary reflex) [mg/kg]	Ratio of Effect (urinary reflex)
CCN(CC)CCNC(=O)c1cccc2c(=O)c(C)c(-c3ccccc3)oc12 [Compound 1]	1066.1	27.1	36.7	7.42
Cc1c(-c2ccccc2)oc2c(C(=O)NCCN3CCCCC3)cccc2c1=O [Compound 2]	475.4	12.1	26.8	10.16
CCN(CC)CCN(C)C(=O)c1cccc2c(=O)c(C)c(-c3ccccc3)oc12 [Compound 3]	252.1	6.41	46.7	5.83
Cc1c(-c2ccccc2)oc2c(C(=O)NCC(C)N3CCCCC3)cccc2c1=O (stereo not drawn) [Compound 4]	1276.9	32.5	46.7	5.83
CCN(CC)CCNC(=O)c1cccc2c(=O)c(C)c(-c3ccc(OC)cc3)oc12 [Compound 5]	1177.4	29.9	93.3	2.92
Cc1c(-c2ccccc2)oc2c(C(=O)OCCN3CCCCC3)cccc2c1=O [Reference 1, flavoxate, reference compound]	1.0	0.0254	272	1.00
CCN(CC)CCOC(=O)c1cccc2c(=O)c(C)c(-c3ccccc3)oc12 [Reference 2, reference compound]	2.3	0.0579	325	0.84
Cc1c(-c2ccccc2)oc2c(C(=O)O)cccc2c1=O [Reference 3, reference compound]	–	–	308	0.89
